Test in all cases: Bacterial growth minimal inhibitory concentration (microdilution, cation-adjusted Mueller-Hinton Broth)
Background: Broth dilution looks for growth in wells or tubes with falling amounts of substance.

For one experiment, the system named is S. aureus A798. In kind it is cell-based, Staphylococcus aureus. Conditions: Staphylococcus aureus, A798; multiply-resistant strain (methicillin- and quinolone-resistant). As for the experimental part: (§1) Minimal Inhibitory Concentrations (MICs; mg/L) were determined in cation-adjusted Mueller-Hinton Broth by a microdilution method following the description given in “Methods for Dilution Antimicrobial Susceptibility Tests for Bacteria that Grow Aerobically”, Approved standard, 7th ed., Clinical and Laboratory Standards Institute (CLSI) Document M7-A7, Wayne, Pa., USA (2006).
(§2) All Example compounds were tested against several Gram positive and Gram negative bacteria. […] Staphylococcus aureus A798 is a multiply-resistant strain (methicillin- and quinolone-resistant), Klebsiella pneumoniae T6474 is a multiply-resistant strain (penicillin-, cephalosporin- and in particular quinolone-resistant), while E. coli ATCC25922 and Pseudomonas aeruginosa ATCC 27853 are quinolone-sensitive strains.

A further experiment deals with E. coli ATCC25922. In kind it is cell-based. The note with it: Escherichia coli, ATCC25922; quinolone-sensitive strain. As for the experimental part:
as §1, §2

The subject of a further experiment is K. pneumoniae T6474. It is filed as cell-based, Klebsiella pneumoniae. Conditions: Klebsiella pneumoniae, T6474; multiply-resistant strain (penicillin-, cephalosporin- and quinolone-resistant). The procedure:
as §1, §2

A further experiment concerns P. aeruginosa ATCC 27853. It is filed as cell-based, Pseudomonas aeruginosa. Conditions: Pseudomonas aeruginosa, ATCC27853; quinolone-sensitive strain. As for the experimental part: as §1, §2

Converted amounts (≈) assume the structure as drawn.

With `CN(C)CCOc1cccc(-c2cccc(CNCC[C@H]3CN(c4ccc5c(n4)NC(=O)CO5)C(=O)O3)c2)c1` [Example 2, 6-[(S)-5-(2-{[3′-(2-dimethylamino-ethoxy)-biphenyl-3-ylmethyl]-amino}-ethyl)-2-oxo-oxazolidin-3-yl]-4H-pyrido[3,2-b][1,4]oxazin-3-one], the minimum inhibitory concentration (MIC) with S. aureus A798 is 0.5 µg/mL (≈ 0.941 µM); in the experiment on E. coli ATCC25922, 2 µg/mL (≈ 3.76 µM); against K. pneumoniae T6474, 2 µg/mL (≈ 3.76 µM); with P. aeruginosa ATCC 27853, 4 µg/mL (≈ 7.52 µM).

For `O=C1COc2ccc(N3C[C@H](CCNCc4cccc(-c5cccc(OC[C@@H]6CCCN6)n5)c4)OC3=O)nc2N1` [Example $133, 6-[(S)-2-oxo-5-(2-{3-[6-((S)-1-pyrrolidin-2-ylmethoxy)-pyridin-2-yl]-benzylamino}-ethyl)-oxazolidin-3-yl]-4H-pyrido[3,2-b][1,4]oxazin-3-one], the minimum inhibitory concentration (MIC) in the experiment with S. aureus A798 stood at 1 µg/mL (≈ 1.84 µM); in the experiment with E. coli ATCC25922, 1 µg/mL (≈ 1.84 µM); in the experiment with K. pneumoniae T6474 it was 2 µg/mL (≈ 3.67 µM); against P. aeruginosa ATCC 27853 it was 0.5 µg/mL (≈ 0.918 µM).

For `O=C1COc2ccc(N3C[C@H](CCNCc4cccc(-c5cccc(OC6CNC6)c5)c4)OC3=O)nc2N1` [Example $105, 6-[(S)-5-(2-{[3′-(azetidin-3-yloxy)-biphenyl-3-ylmethyl]-amino}-ethyl)-2-oxo-oxazolidin-3-yl]-4H-pyrido[3,2-b][1,4]oxazin-3-one], the MIC against S. aureus A798, in the experiment with E. coli ATCC25922, in the experiment on K. pneumoniae T6474 and against P. aeruginosa ATCC 27853 was 2 µg/mL (≈ 3.88 µM) throughout.

With `NCCOc1cccc(-c2cccc(CNCC[C@H]3CN(c4ccc5c(n4)NC(=O)CO5)C(=O)O3)c2)n1` [Example 8, 6-[(S)-5-(2-{3-[6-(2-amino-ethoxy)-pyridin-2-yl]-benzylamino}-ethyl)-2-oxo-oxazolidin-3-yl]-4H-pyrido[3,2-b][1,4]oxazin-3-one], the MIC in the experiment on S. aureus A798 stood at 0.25 µg/mL (≈ 0.495 µM); in the experiment on E. coli ATCC25922, 0.5 µg/mL (≈ 0.991 µM); with K. pneumoniae T6474, 1 µg/mL (≈ 1.98 µM); in the experiment on P. aeruginosa ATCC 27853, 0.25 µg/mL (≈ 0.495 µM).

On to `O=C1CSc2ccc(N3C[C@@H](CCNCc4cccc(-c5cccc(OC[C@@H]6CCN6)n5)c4)OC3=O)cc2N1` [Example $152, 6-[(R)-5-(2-{3-[6-((S)-1-azetidin-2-ylmethoxy)-pyridin-2-yl]-benzylamino}-ethyl)-2-oxo-oxazolidin-3-yl]-4H-benzo[1,4]thiazin-3-one], for which the MIC in the experiment with S. aureus A798 was determined as 4 µg/mL (≈ 7.33 µM); with E. coli ATCC25922, 2 µg/mL (≈ 3.67 µM); with K. pneumoniae T6474, 4 µg/mL (≈ 7.33 µM); in the experiment on P. aeruginosa ATCC 27853 it was 1 µg/mL (≈ 1.83 µM).

Regarding `CN1CC[C@H]1COc1cccc(-c2cccc(CNCC[C@H]3CN(c4ccc5c(n4)NC(=O)CO5)C(=O)O3)c2)c1` [Example $104, 6-[(S)-5-(2-{[3′-((S)-1-methyl-azetidin-2-ylmethoxy)-biphenyl-3-ylmethyl]-amino}-ethyl)-2-oxo-oxazolidin-3-yl]-4H-pyrido[3,2-b][1,4]oxazin-3-one], the minimum inhibitory concentration (MIC) amounted to 1 µg/mL (≈ 1.84 µM) against S. aureus A798, 2 µg/mL (≈ 3.68 µM) in the experiment with E. coli ATCC25922, 4 µg/mL (≈ 7.36 µM) with K. pneumoniae T6474 and 4 µg/mL (≈ 7.36 µM) against P. aeruginosa ATCC 27853.

Regarding `O=C1COc2ccc(N3C[C@H](CCNCc4cccc(-c5cc(O[C@@H]6CCNC6)ncn5)c4)OC3=O)nc2N1` [Example $116, 6-[(S)-2-oxo-5-(2-{3-[6-((R)-pyrrolidin-3-yloxy)-pyrimidin-4-yl]-benzylamino}-ethyl)-oxazolidin-3-yl]-4H-pyrido[3,2-b][1,4]oxazin-3-one], the MIC was determined as 4 µg/mL (≈ 7.52 µM) against S. aureus A798, 2 µg/mL (≈ 3.76 µM) against E. coli ATCC25922, 8 µg/mL (≈ 15 µM) in the experiment on K. pneumoniae T6474 and 2 µg/mL (≈ 3.76 µM) in the experiment with P. aeruginosa ATCC 27853.

As to `C[C@H]1C[C@H](Oc2cccc(-c3cccc(CNCC[C@H]4CN(c5ccc6c(n5)NC(=O)CO6)C(=O)O4)c3)n2)CN1` [Example $131, 6-[(S)-5-(2-{3-[6-((3S,5S)-5-methyl-pyrrolidin-3-yloxy)-pyridin-2-yl]-benzylamino}-ethyl)-2-oxo-oxazolidin-3-yl]-4H-pyrido[3,2-b][1,4]oxazin-3-one], the MIC in the experiment with S. aureus A798 was determined as 0.25 µg/mL (≈ 0.459 µM); against E. coli ATCC25922 it was 0.5 µg/mL (≈ 0.918 µM); against K. pneumoniae T6474 it was 1 µg/mL (≈ 1.84 µM); against P. aeruginosa ATCC 27853 it was 0.5 µg/mL (≈ 0.918 µM).

Consider `CN1CC[C@@H](COc2cccc(-c3cccc(CNCC[C@H]4CN(c5ccc6c(n5)NC(=O)CO6)C(=O)O4)c3)n2)C1` [Example $140, 6-[(S)-5-(2-{3-[6-((R)-1-methyl-pyrrolidin-3-ylmethoxy)-pyridin-2-yl]-benzylamino}-ethyl)-2-oxo-oxazolidin-3-yl]-4H-pyrido[3,2-b][1,4]oxazin-3-one], for which the MIC with S. aureus A798 amounted to 0.5 µg/mL (≈ 0.895 µM); in the experiment with E. coli ATCC25922, 2 µg/mL (≈ 3.58 µM); in the experiment with K. pneumoniae T6474, 2 µg/mL (≈ 3.58 µM); in the experiment with P. aeruginosa ATCC 27853 it was 2 µg/mL (≈ 3.58 µM).

As for `CC(C)N1CCC(Oc2cccc(-c3cccc(CNCC[C@H]4CN(c5ccc6c(n5)NC(=O)CO6)C(=O)O4)c3)n2)C1` (mixture of isomers) [Example $134, 6-[(S)-5-(2-{3-[6-((RS)-1-isopropyl-pyrrolidin-3-yloxy)-pyridin-2-yl]-benzylamino}-ethyl)-2-oxo-oxazolidin-3-yl]-4H-pyrido[3,2-b][1,4]oxazin-3-one], the minimum inhibitory concentration (MIC) in the experiment with S. aureus A798 was determined as 0.5 µg/mL; in the experiment on E. coli ATCC25922 it was 2 µg/mL; in the experiment with K. pneumoniae T6474 it was 4 µg/mL; with P. aeruginosa ATCC 27853, 4 µg/mL.

Consider `CN1CC(Oc2cncc(-c3cccc(CNCC[C@H]4CN(c5ccc6c(n5)NC(=O)CO6)C(=O)O4)n3)n2)C1` [Example $179, 6-{(S)-5-[2-({6-[6-(1-methyl-azetidin-3-yloxy)-pyrazin-2-yl]-pyridin-2-ylmethyl}-amino)-ethyl]-2-oxo-oxazolidin-3-yl}-4H-pyrido[3,2-b][1,4]oxazin-3-one], for which the MIC against S. aureus A798 worked out at 0.5 µg/mL (≈ 0.939 µM); against E. coli ATCC25922, 1 µg/mL (≈ 1.88 µM); against K. pneumoniae T6474, 1 µg/mL (≈ 1.88 µM); with P. aeruginosa ATCC 27853, 2 µg/mL (≈ 3.76 µM).

Take `CN1CC(Oc2cccc(-c3cccc(CNCC[C@H]4CN(c5ccc6c(n5)NC(=O)CO6)C(=O)O4)n3)n2)C1` [Example $188, 6-[(S)-5-(2-{[6′-(1-methyl-azetidin-3-yloxy)-[2,2′]bipyridinyl-6-ylmethyl]-amino}-ethyl)-2-oxo-oxazolidin-3-yl]-4H-pyrido[3,2-b][1,4]oxazin-3-one]: the MIC worked out at 1 µg/mL (≈ 1.88 µM) against S. aureus A798, 1 µg/mL (≈ 1.88 µM) in the experiment with E. coli ATCC25922, 2 µg/mL (≈ 3.76 µM) with K. pneumoniae T6474 and 4 µg/mL (≈ 7.52 µM) against P. aeruginosa ATCC 27853.

On to `O=C1COc2ccc(N3C[C@H](CCNCc4cccc(-c5cccc(OC[C@H]6CCCN6)n5)c4)OC3=O)nc2N1` [Example $132, 6-[(S)-2-oxo-5-(2-{3-[6-((R)-1-pyrrolidin-2-ylmethoxy)-pyridin-2-yl]-benzylamino}-ethyl)-oxazolidin-3-yl]-4H-pyrido[3,2-b][1,4]oxazin-3-one], for which the minimal inhibitory concentration (MIC) against S. aureus A798 came out at 0.25 µg/mL (≈ 0.459 µM); with E. coli ATCC25922, 0.5 µg/mL (≈ 0.918 µM); in the experiment with K. pneumoniae T6474 it was 1 µg/mL (≈ 1.84 µM); in the experiment with P. aeruginosa ATCC 27853 it was 0.5 µg/mL (≈ 0.918 µM).

As to `CN1CC[C@@H]1COc1cccc(-c2cccc(CNCC[C@H]3CN(c4ccc5c(n4)NC(=O)CO5)C(=O)O3)c2)n1` [Example $125, 6-[(S)-5-(2-{3-[6-((R)-1-methyl-azetidin-2-ylmethoxy)-pyridin-2-yl]-benzylamino}-ethyl)-2-oxo-oxazolidin-3-yl]-4H-pyrido[3,2-b][1,4]oxazin-3-one], the MIC was 0.5 µg/mL (≈ 0.918 µM) in the experiment with S. aureus A798, 1 µg/mL (≈ 1.84 µM) with E. coli ATCC25922, 2 µg/mL (≈ 3.67 µM) against K. pneumoniae T6474 and 4 µg/mL (≈ 7.34 µM) against P. aeruginosa ATCC 27853.

By MIC is commonly meant the lowest concentration that inhibits growth of the organism. Higher therefore signals a less susceptible organism.

The values are drawn from patent US9850256B2, “Antibacterial basic biaromatic derivatives with aminoalkoxy substitution” (priority 2014, dated 2017).
